Patent US11547681B2, “N-acylethanolamide derivatives and uses thereof” (ELIEM THERAPEUTICS, INC., priority 2016, dated 2023)

Experiment: in vitro
Settings: for Concentration (μM) of analyte PEA, 0 min / Concentration (μM) of analyte PEA, 10 min / Concentration (μM) of analyte PEA, 20 min / Concentration (μM) of analyte PEA, 30 min / Concentration (μM) of analyte PEA, 60 min / % Remaining of Initial (n = 1), 0 min / % Remaining of Initial (n = 1), 10 min / % Remaining of Initial (n = 1), 20 min / % Remaining of Initial (n = 1), 30 min / % Remaining of Initial (n = 1), 60 min: 1 μM; for % Remaining of Initial (n = 1), 0 min: s9, 0 h; for % Remaining of Initial (n = 1), 10 min: s9, 10 min; for % Remaining of Initial (n = 1), 20 min: s9, 20 min; for % Remaining of Initial (n = 1), 30 min: s9, 0.5 h; for % Remaining of Initial (n = 1), 60 min: s9, 1 h
Method: Reaction mixture, minus cofactors, was prepared as described below. Test article was added into the reaction mixture at a final concentration of 1 μM. […] An aliquot of the reaction mixture (without cofactor cocktail) was equilibrated in a shaking water bath at 37° C. for 3 minutes. The reaction was initiated by the addition of cofactor cocktail (see below), and the mixture was then incubated in a shaking water bath at 37° C. Aliquots (100 μL) were withdrawn 0, 10, 20, 30 and 60 minutes. Test article samples were immediately combined with 300 μL of ice-cold acetonitrile containing 1% formic acid. Control samples were immediately combined with 400 μL of ice-cold 50/50 acetonitrile (ACN)/dH2O containing 0.1% formic acid and internal standard to terminate the reaction. Samples were then mixed and centrifuged to precipitate proteins. Calibration standards were prepared in matched matrix. Samples and standards were assayed by LC-MS/MS using electrospray ionization for both the dosed prodrug and the expected drug (PEA). Analytical conditions are outlined in Appendix 8-1. Test article concentration at each time point was compared to the test article concentration at time 0 to determine the percent remaining at each time point. Half-lives were calculated using GraphPad software, fitting to a single-phase exponential decay equation.
Reaction mixture, minus cofactors, was prepared as described below. Test article was added into the reaction mixture at a final concentration of 1 μM. […] An aliquot of the reaction mixture (without cofactor cocktail) was equilibrated in a shaking water bath at 37° C. for 5 minutes. Reaction was initiated by the addition of cofactor cocktail (see below), and mixture was then incubated in a shaking water bath at 37° C. Aliquots (100 μL) were withdrawn at 0, 10, 20, 30, and 60 minutes. Test article samples were immediately combined with 300 μL of ice-cold acetonitrile containing 1% formic acid. Control samples were immediately combined with 400 μL of ice-cold 50/50 acetonitrile (ACN)/dH2O containing 0.1% formic acid and internal standard to terminate the reaction. Samples were then mixed and centrifuged to precipitate proteins. Calibration standards were prepared in matched matrix. Samples and standards were assayed by LC-MS/MS using electrospray ionization for both dosed prodrug and expected drug (PEA). Analytical conditions are outlined in Appendix 10-1. Test article concentration at each time point was compared to test article concentration at time 0 to determine the percent remaining at each time point. Half-lives were calculated using GraphPad software, fitting to a single-phase exponential decay equation.
The reaction mixture, minus cofactors, was prepared as described below. Test article was added into the reaction mixture at a final concentration of 1 μM. […] An aliquot of the reaction mixture (without cofactor cocktail) was equilibrated in a shaking water bath at 37° C. for 3 minutes. Reaction was initiated by the addition of cofactor cocktail (see below), and the mixture was then incubated in a shaking water bath at 37° C. Aliquots (100 μL) were withdrawn at 0, 10, 20, 30, and 60 minutes. Test article samples were immediately combined with 300 μL of ice-cold acetonitrile containing 1% formic acid. Control samples were immediately combined with 400 μL of ice-cold 50/50 acetonitrile (ACN)/dH2O containing 0.1% formic acid and internal standard to terminate the reaction. Samples were then mixed and centrifuged to precipitate proteins. Calibration standards were prepared in matched matrix. Samples and standards were assayed by LC-MS/MS using electrospray ionization for both dosed prodrug and expected drug (PEA). Analytical conditions are outlined in Appendix 13-1. Test article concentration at each time point was compared to the test article concentration at time 0 to determine the percent remaining at each time point.

Which “Concentration (μM) of analyte PEA, 0 min” value (both, human) does the source give for `CCCCCCCCCCCCCCCC(=O)NCCOC(=O)CCC(=O)OC[C@H]1O[C@@](CO)(O[C@H]2O[C@H](CO)[C@@H](O)[C@H](O)[C@H]2O)[C@@H](O)[C@@H]1O` [Compound I-7] here?
Its value is 0.20 µM.

What about the “Concentration (μM) of analyte PEA, 10 min” value (“Concentration (μM) … 10 min” for short) (both, human) of the same molecule?
Its value is 0.32 µM.

What about the “Concentration (μM) of analyte PEA, 20 min” value (“Concentration (μM) … 20 min” for short) (both, human) of the same molecule?
The value was 0.17 µM.

And the “Concentration (μM) of analyte PEA, 30 min” value (“Concentration (μM) … 30 min” for short) (both, human)?
The value was 0.13 µM.

And the “Concentration (μM) of analyte PEA, 60 min” value (“Concentration (μM) … 60 min” for short) (both, human)?
Its value is 0.042 µM.

And the “% Remaining of Initial (n = 1), 0 min” value (both, human)?
Its value is 100%.

What about the “% Remaining of Initial (n = 1), 10 min” value (both, human) of the same molecule?
Its value is 1.9%.

And the “% Remaining of Initial (n = 1), 20 min” value (both, human)?
Its value is less than 1.0%.

What about the “% Remaining of Initial (n = 1), 30 min” value (both, human) of the same molecule?
The value was less than 1.0%.

And the “% Remaining of Initial (n = 1), 60 min” value (both, human)?
Its value is less than 1.0%.

And the “Concentration (μM) of analyte PEA, 0 min” value (male, Beagle, dog)?
Its value is 0.21 µM.

And the “Concentration (μM) … 10 min” value (male, Beagle, dog)?
The value was 0.16 µM.

What about the “Concentration (μM) … 20 min” value (male, Beagle, dog) of the same molecule?
The value was 0.15 µM.

And the “Concentration (μM) … 30 min” value (male, Beagle, dog)?
The value was 0.12 µM.

What about the “Concentration (μM) … 60 min” value (male, Beagle, dog) of the same molecule?
Its value is 0.049 µM.

And the “% Remaining of Initial (n = 1), 0 min” value (male, Beagle, dog)?
Its value is 100%.

And the “% Remaining of Initial (n = 1), 10 min” value (male, Beagle, dog)?
Its value is less than 1.0%.

What about the “% Remaining of Initial (n = 1), 20 min” value (male, Beagle, dog) of the same molecule?
The value was less than 1.0%.

What about the “% Remaining of Initial (n = 1), 30 min” value (male, Beagle, dog) of the same molecule?
The value was less than 1.0%.

And the “% Remaining of Initial (n = 1), 60 min” value (male, Beagle, dog)?
The value was less than 1.0%.

What about the half-life at 1 μM (male, Beagle, dog, s9, Half-life (min)) of the same molecule?
Its half-life at 1 μM is less than 1 min.

And the “Concentration (μM) of analyte PEA, 0 min” value (male, CD-1, mouse)?
The value was 0.22 µM.

What about the “Concentration (μM) … 10 min” value (male, CD-1, mouse) of the same molecule?
Its value is 0.22 µM.

And the “Concentration (μM) … 20 min” value (male, CD-1, mouse)?
Its value is 0.14 µM.

And the “Concentration (μM) … 30 min” value (male, CD-1, mouse)?
The value was 0.084 µM.

And the “Concentration (μM) … 60 min” value (male, CD-1, mouse)?
The value was 0.020 µM.

And the “% Remaining of Initial (n = 1), 0 min” value (male, CD-1, mouse)?
Its value is 100%.

And the “% Remaining of Initial (n = 1), 10 min” value (male, CD-1, mouse)?
The value was 1.6%.

And the “% Remaining of Initial (n = 1), 20 min” value (male, CD-1, mouse)?
Its value is less than 1.0%.

And the “% Remaining of Initial (n = 1), 30 min” value (male, CD-1, mouse)?
Its value is less than 1.0%.

What about the “% Remaining of Initial (n = 1), 60 min” value (male, CD-1, mouse) of the same molecule?
The value was less than 1.0%.

And the “Concentration (μM) of analyte PEA, 0 min” value (male, Sprague-Dawley, rat)?
The value was 0.045 µM.

And the “Concentration (μM) … 10 min” value (male, Sprague-Dawley, rat)?
Its value is 0.15 µM.

And the “Concentration (μM) … 20 min” value (male, Sprague-Dawley, rat)?
The value was 0.16 µM.

What about the “Concentration (μM) … 30 min” value (male, Sprague-Dawley, rat) of the same molecule?
Its value is 0.12 µM.

And the “Concentration (μM) … 60 min” value (male, Sprague-Dawley, rat)?
Its value is 0.039 µM.

What about the “% Remaining of Initial (n = 1), 0 min” value (male, Sprague-Dawley, rat) of the same molecule?
The value was 100%.

What about the “% Remaining of Initial (n = 1), 10 min” value (male, Sprague-Dawley, rat) of the same molecule?
Its value is 43%.

What about the “% Remaining of Initial (n = 1), 20 min” value (male, Sprague-Dawley, rat) of the same molecule?
The value was 22%.

What about the “% Remaining of Initial (n = 1), 30 min” value (male, Sprague-Dawley, rat) of the same molecule?
The value was 11%.

And the “% Remaining of Initial (n = 1), 60 min” value (male, Sprague-Dawley, rat)?
The value was 1.4%.

For `C[C@]12CC[C@H]3[C@@H](CCC4=CC(=O)CC[C@@]43C)[C@@H]1CC[C@@H]2O` [Testosterone, testosterone, reference compound], which Half-life (Control Compound, Human liver S9) is on record?
Its Half-life is 28 min.

And the Half-life (Control Compound, Mouse liver S9)?
The Half-life was 9.0 min.

And the CLint (Control Compound, Rat liver S9)?
Its CLint is 0.260 ml/min/mg protein.

And the Half-life (Human liver S9)?
Its Half-life is 28 min.

What about the half-life (male, Beagle, s9) of the same molecule?
The half-life was 25 min.

What about the Half-life (male, CD-1, mouse, s9) of the same molecule?
The Half-life was 17 min.

And the half-life (male, CD-1, mouse, s9)?
The half-life was 8.7 min.

And the half-life (male, Sprague-Dawley, rat, s9, Half-life, Control Compound, Rat liver S9)?
Its half-life is 2.7 min.

And the half-life at 1 μM (male, Sprague-Dawley, rat, s9, Half-life, Rat liver S9)?
The half-life at 1 μM was 2.7 min.

What about the half-life (male, Sprague-Dawley, rat, s9, Half-life, control compound, rat liver S9) of the same molecule?
Its half-life is 2.7 min.
